Experimental data: the Kinase Knowledgebase extract (Sharma et al. 2016)

target: PIK3CG (human) (UniProt P48736); test: Assessment of PIK3CG Kinase Activity
Sequence (P48736 whole entry, looked up): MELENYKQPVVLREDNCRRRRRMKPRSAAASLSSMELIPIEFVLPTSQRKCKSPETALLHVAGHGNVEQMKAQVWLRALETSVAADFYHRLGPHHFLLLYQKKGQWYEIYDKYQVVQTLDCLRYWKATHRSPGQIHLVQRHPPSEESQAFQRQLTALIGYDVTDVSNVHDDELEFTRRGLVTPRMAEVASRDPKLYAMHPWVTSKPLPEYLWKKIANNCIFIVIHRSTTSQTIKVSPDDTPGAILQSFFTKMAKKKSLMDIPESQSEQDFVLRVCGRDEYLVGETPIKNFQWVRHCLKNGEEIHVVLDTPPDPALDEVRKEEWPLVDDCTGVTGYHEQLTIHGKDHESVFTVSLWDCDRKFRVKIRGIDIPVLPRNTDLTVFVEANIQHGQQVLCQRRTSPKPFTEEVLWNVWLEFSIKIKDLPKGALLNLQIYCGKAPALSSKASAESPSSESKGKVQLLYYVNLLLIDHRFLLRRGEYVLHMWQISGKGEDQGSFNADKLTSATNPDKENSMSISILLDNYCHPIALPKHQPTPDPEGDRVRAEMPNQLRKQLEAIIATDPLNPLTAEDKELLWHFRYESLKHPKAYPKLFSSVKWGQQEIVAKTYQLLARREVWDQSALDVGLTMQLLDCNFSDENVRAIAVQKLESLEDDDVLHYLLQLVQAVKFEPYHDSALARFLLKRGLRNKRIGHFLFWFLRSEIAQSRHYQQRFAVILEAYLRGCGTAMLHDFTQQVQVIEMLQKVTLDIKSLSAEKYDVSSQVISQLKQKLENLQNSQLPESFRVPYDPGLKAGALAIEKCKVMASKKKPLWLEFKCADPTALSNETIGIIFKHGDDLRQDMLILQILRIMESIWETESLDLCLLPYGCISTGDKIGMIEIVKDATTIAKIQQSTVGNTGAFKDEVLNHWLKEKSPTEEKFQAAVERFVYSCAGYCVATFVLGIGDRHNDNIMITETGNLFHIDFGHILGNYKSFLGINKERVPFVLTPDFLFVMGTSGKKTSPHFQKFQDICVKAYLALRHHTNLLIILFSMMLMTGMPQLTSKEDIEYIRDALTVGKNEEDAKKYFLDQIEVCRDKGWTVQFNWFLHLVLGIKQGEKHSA

IC50 | SMILES
< 800 nM | O=C(NCCc1nc(C2CC2)no1)Nc1nc2c(s1)-c1c(c(-c3cncnc3)nn1-c1ccccc1Cl)CC2
< 800 nM | CC(C)OC(=O)N1CCC[C@@H]1CNC(=O)Nc1nc2c(s1)-c1c(c(-c3cncnc3)nn1-c1ccccc1Cl)CC2
< 800 nM | CCN(CC)C(=O)N1CCC[C@@H]1CNC(=O)Nc1nc2c(s1)-c1c(c(-c3cncnc3)nn1-c1ccccc1Cl)CC2
< 800 nM | O=C(NC[C@H]1CCCN1C(=O)OCc1ccccc1)Nc1nc2c(s1)-c1c(c(-c3cncnc3)nn1-c1ccccc1Cl)CC2
< 800 nM | CCNC(=O)Nc1nc2c(s1)-c1c(c(-c3cccnc3)nn1-c1ccc(S(N)(=O)=O)cc1Cl)CC2
< 800 nM | CC(=O)Nc1cccc(CNC(=O)Nc2nc3c(s2)-c2c(c(-c4cccnc4)nn2C2CCN(C)CC2)CC3)c1
< 800 nM | CNC(=O)[C@@H]1CCCC[C@H]1NC(=O)Nc1nc2c(s1)-c1c(c(-c3ccccc3)nn1-c1ccccc1Cl)CC2
< 800 nM | O=C(NCCN1CCNC1=O)Nc1nc2c(s1)-c1c(c(-c3ccccc3)nn1-c1ccccc1Cl)CC2
< 800 nM | CCc1csc(CCNC(=O)Nc2nc3c(s2)-c2c(c(-c4cccnc4)nn2C2CCN(C)CC2)CC3)n1
< 800 nM | CS(=O)(=O)c1ccc(CNC(=O)Nc2nc3c(s2)-c2c(c(-c4cncnc4)nn2-c2ccccc2Cl)CC3)cc1
< 800 nM | NC(=O)c1cccc(CNC(=O)Nc2nc3c(s2)-c2c(c(-c4cccnc4)nn2-c2ccccc2Cl)CC3)c1
< 800 nM | CN(C)C(=O)CCNC(=O)Nc1nc2c(s1)-c1c(c(-c3cccnc3)nn1-c1ccccc1Cl)CC2
< 800 nM | O=C(NCCc1nc(C2CC2)no1)Nc1nc2c(s1)-c1c(c(-c3ccccc3)nn1-c1cccc(Cl)c1)CC2
< 800 nM | O=C(NCCc1cccc(N2CCNC2=O)c1)Nc1nc2c(s1)-c1c(c(-c3cncnc3)nn1-c1ccccc1Cl)CC2
< 800 nM | C[C@H](NC(=O)Nc1nc2c(s1)-c1c(c(-c3ccccc3)nn1-c1ccccc1Cl)CC2)C(=O)N1CCOCC1
< 800 nM | CC(C)(C)OC(=O)N1CCN(c2cccc(NC(=O)Nc3nc4c(s3)-c3c(c(-c5cncnc5)nn3-c3ccccc3F)CC4)c2)CC1

IC50 | SMILES
< 800 nM | CC(C)NC(=O)Nc1nc2c(s1)-c1c(c(-c3cccnc3)nn1-c1ccccc1Cl)CC2
< 800 nM | O=C(NCCN1CCOCC1)Nc1nc2c(s1)-c1c(c(-c3cccnc3)nn1-c1ccccc1Cl)CC2
< 800 nM | O=C(Nc1nc2c(s1)-c1c(c(-c3cccnc3)nn1-c1ccccc1Cl)CC2)N1CCC(N2Cc3ccccc3NC2=O)C1 (stereo unspecified)
< 800 nM | CC(C)c1cccc(CNC(=O)Nc2nc3c(s2)-c2c(c(-c4cccnc4)nn2C2CCN(C)CC2)CC3)c1
< 800 nM | CC(C)c1cccc(CNC(=O)Nc2nc3c(s2)-c2c(c(-c4cccnc4)nn2-c2ccccc2Cl)CC3)c1
< 800 nM | CN1CCN(C(=O)Nc2nc3c(s2)-c2c(cnn2-c2ccccc2)CC3)CC1
< 800 nM | O=C1CCC(NC(=O)Nc2nc3c(s2)-c2c(c(-c4cccnc4)nn2-c2ccccc2Cl)CC3)C(c2ccccc2)N1 (stereo unspecified)
< 800 nM | CC(C)(C)OC(=O)Nc1cccc(CNC(=O)Nc2nc3c(s2)-c2c(c(-c4cncnc4)nn2-c2ccccc2Cl)CC3)c1
< 800 nM | O=C(Nc1nc2c(s1)-c1c(c(-c3cccnc3)nn1-c1ccccc1Cl)CC2)NC1CCC(N2CCNC2=O)CC1 (stereo unspecified)
< 800 nM | O=C1CC[C@H](NC(=O)Nc2nc3c(s2)-c2c(c(-c4cccnc4)nn2-c2ccccc2Cl)CC3)CN1
< 800 nM | O=C(NCc1cccc(OC(F)(F)F)c1)Nc1nc2c(s1)-c1c(c(-c3cncnc3)nn1-c1ccccc1Cl)CC2
< 800 nM | CN1CCN(Cc2cccc(NC(=O)Nc3nc4c(s3)-c3c(c(-c5cncnc5)nn3-c3ccccc3F)CC4)c2)CC1
< 800 nM | CN1CCC(C(=O)N2CCC[C@@H]2CNC(=O)Nc2nc3c(s2)-c2c(c(-c4cncnc4)nn2-c2ccccc2Cl)CC3)C1 (stereo partly specified)
< 800 nM | CCOC(=O)N1CCC[C@@H]1CNC(=O)Nc1nc2c(s1)-c1c(c(-c3cncnc3)nn1-c1ccccc1Cl)CC2
< 800 nM | CN1CCC(n2nc(-c3cccnc3)c3c2-c2sc(NC(=O)NCc4cccc(NC(N)=O)c4)nc2CC3)CC1
